Measured values taken from patent US4780313A (Takeda Chemical Industries, Ltd., priority 1985, dated 1988).

What was measured:
[1] = system: Meth-A fibrosarcoma cells (Meth-A tumor cells); assay: Antitumor activity, subcutaneous administration, Meth-A tumor-bearing mice (Examples 1 and 4); assay type: in vivo, female BALB/c mice; conditions: Table 4, day 21
Procedure: (§1) Meth-A fibrosarcoma cells (Meth-A tumor cells) (1×10^6 cells) were transplanted into each female BALB/c mice (weighing about 20 g) subcutaneously in the flank using a syringe. Seven days after tumor transplantation, mice in which tumor was larger than a certain defined size were chosen and grouped and administration of the test agent was started. The agent was administered subcutaneously in the opposite flank relative to the tumor transplantation site once daily for 10 consecutive days. Each ingredient of the test agent was dissolved in physiological saline (solvent) supplemented in a form of a single preparation with 5% of normal mouse serum in a concentration such that the dose of the solution amounted to 0.1 ml/20 g of mouse body weight. The antitumor effect was evaluated by measuring the tumor weight in each mouse 21 days after tumor transplantation, determining the average tumor weight for each group and calculating the tumor weight ratio (T/C %) between the dosed group (T; 5 animals per group) and the untreated control group (C; 5 to 10 animals per group). The daily dose of each ingredients was expressed in terms of the ingredient weight (mcg) per mouse.

[2] = Body weight gain of tumor-bearing mice, subcutaneous administration (Examples 1 and 4); assay type: in vivo, female BALB/c mice; conditions: Table 4; TMD-5 200 mcg/mouse/day alone s.c.
Procedure: as §1

[3] = TMD-5 200 mcg/mouse/day alone s.c. x10 days
[4] = TMD-76 200 mcg/mouse/day alone s.c. x10 days

Compound	Tumor weight (mg) Mean ± SD [1, 3]	Tumor weight ratio (T/C %) [1, 3] [%]	Body weight gain (g) (day 7 to day 21) [2]	Tumor weight (mg) Mean ± SD [1, 4]	Tumor weight ratio (T/C %) [1, 4] [%]
CC(=O)N[C@H]1C(O)O[C@H](CO)[C@@H](O)[C@@H]1O[C@H](C)C(=O)NC(C)(C)C(=O)N[C@H](CCC(=O)O)C(N)=O (stereo partly drawn) [TMD-5, N-acetylmuramylaminoisobutyryl-D-isoglutamine]	5,662 ± 1,097 mg	99	3.0	–	–
COC(=O)CC[C@@H](NC(=O)[C@@H](NC(=O)[C@@H](C)O[C@H]1[C@H](O)[C@@H](COC(=O)CCC2=C(C)C(=O)C(OC)=C(OC)C2=O)OC(O)[C@@H]1NC(C)=O)C(C)C)C(N)=O (stereo partly drawn) [TMD-76, 6-0-[3-(2,3-dimethoxy-5-methyl-1,4-benzoquinon-6-yl)propionyl]-N-acetylmuramyl-L-valyl-D-isoglutamine methyl ester]	–	–	–	5,550 ± 1,776 mg	97
